# Assay results published in patent US20240400547A1, “2,6-PIPERIDINEDIONE COMPOUND AND APPLICATION THEREOF” (MEDSHINE DISCOVERY INC., priority 2021, published 2024).
# Structures can show the parent of a compound that is named as a salt.
# Tests used:
# [1] = molecular target: T1, IRAK4 (Homo sapiens, UniProt Q9NWZ3); experiment: Target protein degradation in K562 IRAK4-HiBiT cells (Nano-Glo HiBiT); format: cell-based; details: 16 to 18 hours; for Dmax: read-out: Maximum degradation rate
# T1 construct: expressed in transfected cells; host or cells: K562 IRAK4-HiBiT cells
# T1 sequence (Q9NWZ3 1-460): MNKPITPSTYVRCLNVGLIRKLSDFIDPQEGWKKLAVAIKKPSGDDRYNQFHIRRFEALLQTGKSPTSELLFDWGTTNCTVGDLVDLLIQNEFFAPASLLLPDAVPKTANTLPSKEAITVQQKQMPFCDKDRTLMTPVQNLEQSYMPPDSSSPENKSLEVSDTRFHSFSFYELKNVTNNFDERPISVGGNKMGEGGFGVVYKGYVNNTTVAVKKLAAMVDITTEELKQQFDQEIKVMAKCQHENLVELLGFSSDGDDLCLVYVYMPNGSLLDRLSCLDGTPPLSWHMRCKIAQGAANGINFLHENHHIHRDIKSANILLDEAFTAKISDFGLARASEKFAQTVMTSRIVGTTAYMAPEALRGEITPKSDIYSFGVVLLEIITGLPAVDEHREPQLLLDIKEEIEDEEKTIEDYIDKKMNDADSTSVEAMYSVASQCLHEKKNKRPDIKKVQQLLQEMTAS
# Description: Experimental objective: The experiment aims to evaluate the degradation effect of the test compounds on the target protein IRAK4 in K562 IRAK4-HiBiT cells.
# • Cells: K562 IRAK4-HiBiT cells • Culture medium: RPMI 1640+10% fetal bovine serum+2 mM glutamine+1 mM sodium pyruvate+penicillin/streptomycin. • Positive control: 1000 nM; negative control: 0.1% DMSO.
# • (1). The powder of the compound to be tested was dissolved in DMSO to a storage concentration of 10 mM. A total of 9 μL of the 10 mM of the compound to be tested was manually pipetted into the 1st and 13th columns of the LDV plate using a pipettor; • (2). A volume of 6 μL of DMSO was added to columns 2-12 and 14-24 using a Multidrop Combi; • (3). A 3-fold dilution of the test compounds (3 μL+6 μL) was performed using Bravo, for columns 1-11 and 13-23; • (4). According to the plate layout, 25 nL of compound solution (columns 1-24 of the LDV plate) was transferred to the experimental plate using Echo; • (5) 25 nL of the 1 mM positive control solution was transferred to the assay plate as a 100% degradation control (i.e. LC, HPE), and 25 nL of DMSO was transferred to the assay plate as a 0% control (i.e. HC, ZPE).
# • (1) The culture medium was discarded, and the cells were washed once with DPBS, digested with trypsin, counted, and prepared into a cell suspension of […]. • (2) Using the MultiDrop Combi at a medium speed, 25 μL/well of the cell suspension was added to the experimental plate containing the test compounds; • (3) The experimental plate containing cells was returned to the incubator and cultured for 16 to 18 hours at 37° C. and 5% CO2.
# • (1). Using the MultiDrop Combi at a high speed, 25 μL/well of the assay reagent (NanoGlo lytic solution+substrate+LgBit protein) was added to the assay plate, followed by shaking for 10 minutes; • (2) The plate was centrifuged at 2000 rpm for 1 minute to remove any bubbles; • (3) Readings were obtained by using an Envision, US Luminescence reader.
# To calculate the degradation rate (DR) of the test compounds, the following formula is used: IR (%)=(RLU vehicle control−RLU compound)/(RLU vehicle control−RLU positive control)×100%. The solvent control refers to the blank control. The degradation rates of compounds at different concentrations were calculated in Excel, and then XLFit software was used to plot inhibition curves and calculate relevant parameters, including minimum degradation rate, maximum degradation rate, and DC50.
# [2] = molecular target: T2, IKZF1 (Homo sapiens, UniProt Q13422+Q96SW2); experiment: In Cell Western of IKZF1 protein expression level in MM.1S cells; format: cell-based; details: IKZF1, MM.1S cells, 24 hours; for Dmax: MM1.S, read-out: Maximum degradation rate Dmax
# T2 construct: host or cells: MM.1S cells
# Description: Experimental objective: The experiment aims to assess the degradation effect of the test compounds on IKZF1 and 1KZF3 proteins in MM.1S cells by evaluating the impact of the test compounds on the expression levels of IKZF1 and IZKZF3 proteins in MM.1S cells.
# • Cell lines: MMN.1 S cell (sourced from ATCC; Cat. No CRL-2974) • Negative control: 0.100 DMSO.
# • 1) Log phase MM.1 S cells were plated in a 96-well plate at 1.2×10^5 cells per well and cultured overnight; • 2) The next day, compounds were added with a starting concentration of 300 nM, diluted threefold across three replicate wells for 10 concentration gradients (including DMSO), and the cells were incubated for 24 hours in an incubator; • 3) The cells were centrifuged, and the supernatant was carefully removed. 150 μL of 4% paraformaldehyde fixative was added along the wall of the wells, avoiding contact with the bottom cells, and the cells were incubated at room temperature for 20 minutes; • 4) Lysis buffer was prepared by mixing 0.5 mL of 10% Triton X-100 with 49.5 mL of PBS until homogenous; • 5) 200 μL of lysis buffer was added along the well walls, again avoiding the bottom cells, and incubated on a shaker at room temperature for 5 minutes; • 6) The wells were washed four times; • 7) 150 μL of Licor […] Blocking Buffer was added along the well walls, avoiding the bottom cells, and the cells were incubated on a shaker at room temperature for 1.5 hours; • 8) Ikaros (D6N9Y) Rabbit mAb, Aiolos (D1C1E) Rabbit mAb and GAPDH mouse mAb (proteintech, 60004-1-Ig) were diluted at a 1:100 ratio using antibody dilution buffer; • 9) 50 μL of mixed antibody was added to each well with three replicate wells, and the cells were incubated overnight on a shaker at 4° C.; • 10) PBST (PBS with 0.1% Tween 20) was prepared; • 11) The primary antibodies were removed, and 200 μL of PBST was added along the well walls, avoiding the bottom cells, and the cells were incubated on a shaker at room temperature for 5 minutes; • 12) The wells were washed four times; • 13) Secondary antibody dilution buffer was prepared by adding Tween 20 to Licor […] Blocking Buffer to a final concentration of 0.2%; • 14) Fluorescent secondary antibodies were diluted in the dark at a 1:800 ratio. To 400 μL of secondary antibody dilution solution, 0.5 μL of each IRDye 800CW and IRDye 680CW (corresponding to the primary antibodies) was added. • 15) 50 μL of the diluted fluorescent secondary antibodies was added to each well and the cells were incubated on a shaker at room temperature in the dark for 60 minutes; • 16) The secondary antibodies were removed, and 200 μL of PBST was added along the well walls, avoiding the bottom cells, and the cells were incubated on a shaker at room temperature in the dark for 5 minutes; • 17) The wells were washed four times; immediately after washing, the Odyssey Gel Imaging System was used for detection at dual wavelengths of 700 nm and 800 nm.
# Using GraphPad Prism 6 software, inhibition rate data was entered to fit the curve and calculate the DC50 value.
# T2 sequence (Q13422 whole entry): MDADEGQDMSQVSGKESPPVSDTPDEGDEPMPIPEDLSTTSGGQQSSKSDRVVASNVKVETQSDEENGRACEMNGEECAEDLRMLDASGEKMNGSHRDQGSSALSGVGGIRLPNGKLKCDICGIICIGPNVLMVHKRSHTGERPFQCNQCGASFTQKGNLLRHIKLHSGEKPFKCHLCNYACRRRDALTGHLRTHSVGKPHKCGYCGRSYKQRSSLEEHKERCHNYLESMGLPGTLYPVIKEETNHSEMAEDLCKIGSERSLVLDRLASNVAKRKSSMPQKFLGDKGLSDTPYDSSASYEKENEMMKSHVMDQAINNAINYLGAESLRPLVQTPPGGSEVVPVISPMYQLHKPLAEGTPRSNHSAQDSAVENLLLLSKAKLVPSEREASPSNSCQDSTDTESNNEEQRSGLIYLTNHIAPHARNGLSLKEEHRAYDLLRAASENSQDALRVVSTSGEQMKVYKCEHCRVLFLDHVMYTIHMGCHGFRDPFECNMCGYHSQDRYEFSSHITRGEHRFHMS
# T2 sequence (Q96SW2 whole entry): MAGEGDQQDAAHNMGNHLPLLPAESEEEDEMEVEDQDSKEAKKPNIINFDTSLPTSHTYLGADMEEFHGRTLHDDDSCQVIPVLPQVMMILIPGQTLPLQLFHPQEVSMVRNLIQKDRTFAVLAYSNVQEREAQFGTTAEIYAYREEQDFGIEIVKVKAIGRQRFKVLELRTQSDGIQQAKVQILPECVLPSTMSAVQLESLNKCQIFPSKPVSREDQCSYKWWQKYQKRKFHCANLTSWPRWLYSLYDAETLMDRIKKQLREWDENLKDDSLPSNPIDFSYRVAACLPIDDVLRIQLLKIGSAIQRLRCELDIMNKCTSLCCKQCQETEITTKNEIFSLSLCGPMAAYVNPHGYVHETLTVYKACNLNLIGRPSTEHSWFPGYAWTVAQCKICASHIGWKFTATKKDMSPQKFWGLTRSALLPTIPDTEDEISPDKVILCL
# T2 sequence (Q16531 whole entry partner): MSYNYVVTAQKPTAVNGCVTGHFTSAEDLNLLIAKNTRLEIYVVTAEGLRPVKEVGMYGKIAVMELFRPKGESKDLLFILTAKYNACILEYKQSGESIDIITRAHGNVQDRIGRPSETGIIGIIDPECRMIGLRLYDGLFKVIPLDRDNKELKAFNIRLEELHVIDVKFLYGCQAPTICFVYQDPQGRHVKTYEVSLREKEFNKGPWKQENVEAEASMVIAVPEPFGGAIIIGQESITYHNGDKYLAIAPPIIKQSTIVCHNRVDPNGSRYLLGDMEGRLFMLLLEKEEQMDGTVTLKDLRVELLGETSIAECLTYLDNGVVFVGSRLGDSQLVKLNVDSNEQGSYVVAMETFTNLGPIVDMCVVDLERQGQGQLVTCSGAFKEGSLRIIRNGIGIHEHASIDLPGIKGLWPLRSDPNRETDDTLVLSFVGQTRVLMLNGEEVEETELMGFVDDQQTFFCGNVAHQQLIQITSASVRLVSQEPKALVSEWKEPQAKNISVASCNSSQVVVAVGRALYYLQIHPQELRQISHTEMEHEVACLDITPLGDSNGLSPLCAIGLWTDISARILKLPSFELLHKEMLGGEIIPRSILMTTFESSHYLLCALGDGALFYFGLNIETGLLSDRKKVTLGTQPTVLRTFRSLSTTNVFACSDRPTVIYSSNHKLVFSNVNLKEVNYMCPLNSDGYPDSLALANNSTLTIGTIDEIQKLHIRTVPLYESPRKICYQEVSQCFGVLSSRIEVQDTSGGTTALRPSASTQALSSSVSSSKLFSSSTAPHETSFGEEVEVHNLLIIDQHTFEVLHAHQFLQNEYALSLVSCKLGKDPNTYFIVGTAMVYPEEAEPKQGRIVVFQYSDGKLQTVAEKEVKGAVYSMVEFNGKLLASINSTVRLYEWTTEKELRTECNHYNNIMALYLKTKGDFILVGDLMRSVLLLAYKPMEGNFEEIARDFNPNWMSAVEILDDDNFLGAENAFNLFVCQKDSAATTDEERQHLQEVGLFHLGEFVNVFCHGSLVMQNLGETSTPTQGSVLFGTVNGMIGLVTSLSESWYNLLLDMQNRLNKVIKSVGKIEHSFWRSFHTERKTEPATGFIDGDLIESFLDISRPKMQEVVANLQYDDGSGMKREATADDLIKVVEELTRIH
SMILES,DC50 [1],Dmax [1],DC50 [2],Dmax [2]
CC(C)(O)c1cc2nc(C3CCC(CN4CCN(CC(=O)Nc5cccc6c5ccc5onc(C7CCC(=O)NC7=O)c56)CC4)CC3)sc2cc1NC(=O)c1cccc(C(F)(F)F)n1 (stereo not drawn) [Formate of WX017],4 nM,73.9%,15.7 nM,62.9%
CC(C)(O)c1cc2nc([C@H]3CC[C@H](CN4CCN(CC(=O)Nc5ccc6c(ccc7onc(C8CCC(=O)NC8=O)c76)c5)CC4)CC3)sc2cc1NC(=O)c1cccc(C(F)(F)F)n1 (stereo partly drawn) [Formate of WX020],29.9 nM,75.1%,3.77 nM,85.2%
CC(C)(O)c1cc2nc([C@H]3CC[C@H](CN4CCN(CC(=O)Nc5ccc6c(C7CCC(=O)NC7=O)noc6c5)CC4)CC3)sc2cc1NC(=O)c1cccc(C(F)(F)F)n1 (stereo partly drawn) [Formate of WX026],0.78 nM,80.3%,5.64 nM,84.4%
O=C1CCC(c2coc3cc(NC(=O)CN4CCN(C[C@H]5CC[C@H](N6CC(NC(=O)c7coc(-c8ccnc(NCC9CC9)c8)n7)C(C(F)F)N6)CC5)CC4)ccc23)C(=O)N1 (stereo partly drawn) [Hydrochloride of WX002],13.5 nM,100%,–,–
O=C1CCC(c2noc3ccc4c(NC(=O)C(F)(F)C5CCN(CC6CCC(n7cc(NC(=O)c8coc(-c9ccnc(NCC%10CC%10)c9)n8)c(C(F)F)n7)CC6)CC5)cccc4c23)C(=O)N1 (stereo not drawn) [Hydrochloride of WX018],7.91 nM,119%,14.5 nM,88.8%
O=C1CCC(c2noc3cc(NC(=O)CN4CCN(C[C@H]5CC[C@H](n6cc(NC(=O)c7coc(-c8ccnc(NCC9CC9)c8)n7)c(C(F)F)n6)CC5)CC4)ccc23)C(=O)N1 (stereo partly drawn) [Hydrochloride of WX025],2.53 nM,105%,14.4 nM,72.2%
O=C1CCC(c2noc3c(NC(=O)CN4CCN(C[C@H]5CC[C@H](n6cc(NC(=O)c7coc(-c8ccnc(NCC9CC9)c8)n7)c(C(F)F)n6)CC5)CC4)cccc23)C(=O)N1 (stereo partly drawn) [Hydrochloride of WX028],2.11 nM,–,26.7 nM,49.7%
O=C1CCC(c2coc3ccc4c(NC(=O)CN5CCN(C[C@H]6CC[C@H](n7cc(NC(=O)c8coc(-c9ccnc(NCC%10CC%10)c9)n8)c(C(F)F)n7)CC6)CC5)cccc4c23)C(=O)N1 (stereo partly drawn) [Trifluoroacetate of WX011],9.6 nM,105%,–,–
